Conditions: Liquid, Frequency=8 MHz, Pulse-echo method

CCCC [butane]
Conditions	speed of sound [m/s]
320 K, 1101.2 kPa	790.66
320 K, 2101.9 kPa	805.08
320 K, 2104.1 kPa	805.16
320 K, 3102.5 kPa	818.93
320 K, 3104.8 kPa	819.01
320 K, 4103.2 kPa	832.27
320 K, 4105.5 kPa	832.35
320 K, 5103.8 kPa	845.16
320 K, 5106.1 kPa	845.24
320 K, 6106.8 kPa	857.71
320 K, 7107.5 kPa	869.8
320 K, 8108.2 kPa	881.54
320 K, 9108.9 kPa	892.95
320 K, 10109 kPa	904.04
320 K, 10110 kPa	904.07
320 K, 12611 kPa	930.65
320 K, 15113 kPa	955.74
320 K, 17615 kPa	979.54
320 K, 20116 kPa	1002.2
320 K, 25120 kPa	1044.7
320 K, 30123 kPa	1084
320 K, 35127 kPa	1120.6
320 K, 40130 kPa	1155
320 K, 45134 kPa	1187.5
320 K, 50137 kPa	1218.4
320 K, 50138 kPa	1218.4
320 K, 60144 kPa	1276.1
320 K, 70152 kPa	1329.2
320 K, 80158 kPa	1378.5
320 K, 90166 kPa	1424.7
320 K, 100173 kPa	1468.2
340 K, 1100.4 kPa	678.12
340 K, 2101.1 kPa	696.22
340 K, 2103.7 kPa	696.27
340 K, 3101.7 kPa	713.3
340 K, 3104.3 kPa	713.36
340 K, 4102.4 kPa	729.53
340 K, 4105 kPa	729.59
340 K, 5102.9 kPa	745.01
340 K, 5105.6 kPa	745.07
340 K, 6106.2 kPa	759.88
340 K, 7106.8 kPa	774.1
340 K, 8107.5 kPa	787.79
340 K, 9108.1 kPa	801.01
340 K, 10106 kPa	813.73
340 K, 10108 kPa	813.77
340 K, 12610 kPa	844.03
340 K, 15112 kPa	872.22
340 K, 17614 kPa	898.7
340 K, 20116 kPa	923.7
340 K, 25119 kPa	970.09
340 K, 30123 kPa	1012.5
340 K, 35126 kPa	1051.8
340 K, 40130 kPa	1088.5
340 K, 45133 kPa	1122.9
340 K, 50136 kPa	1155.5
340 K, 60145 kPa	1216
340 K, 70152 kPa	1271.4
340 K, 80159 kPa	1322.7
340 K, 90166 kPa	1370.5
340 K, 100173 kPa	1415.5
360 K, 2100.8 kPa	582.29
360 K, 2103.9 kPa	582.37
360 K, 3101.4 kPa	604.48
360 K, 3104.6 kPa	604.56
360 K, 4102 kPa	625
360 K, 4102.1 kPa	625
360 K, 4105.4 kPa	625.09
360 K, 5102.6 kPa	644.17
360 K, 5103 kPa	644.18
360 K, 5106.1 kPa	644.25
360 K, 6106.9 kPa	662.28
360 K, 7107.6 kPa	679.33
360 K, 8108.4 kPa	695.54
360 K, 9109.1 kPa	711.01
360 K, 10110 kPa	725.83
360 K, 12612 kPa	760.45
360 K, 15113 kPa	792.21
360 K, 17615 kPa	821.66
360 K, 20117 kPa	849.23
360 K, 25120 kPa	899.75
360 K, 30124 kPa	945.47
360 K, 35128 kPa	987.41
360 K, 40131 kPa	1026.3
360 K, 45135 kPa	1062.7
360 K, 50138 kPa	1096.9
360 K, 60145 kPa	1160.2
360 K, 70152 kPa	1217.7
360 K, 80159 kPa	1270.8
360 K, 90166 kPa	1320.2
360 K, 100173 kPa	1366.5
380 K, 2103.2 kPa	456.13
380 K, 3104.2 kPa	488.08
380 K, 4105 kPa	515.93
380 K, 5105.8 kPa	540.88
380 K, 6106.7 kPa	563.62
380 K, 7107.5 kPa	584.62
380 K, 8108.3 kPa	604.2
380 K, 9109.1 kPa	622.6
380 K, 10110 kPa	639.98
380 K, 12611 kPa	679.85
380 K, 15113 kPa	715.71
380 K, 17614 kPa	748.49
380 K, 20116 kPa	778.8
380 K, 25120 kPa	833.69
380 K, 30123 kPa	882.73
380 K, 35127 kPa	927.32
380 K, 40132 kPa	968.4
380 K, 45135 kPa	1006.6
380 K, 50139 kPa	1042.4
380 K, 60146 kPa	1108.3
380 K, 70153 kPa	1167.9
380 K, 80160 kPa	1222.7
380 K, 90167 kPa	1273.5
380 K, 100174 kPa	1321.1
400 K, 2704.8 kPa	329.55
400 K, 3105.1 kPa	351.68
400 K, 4105.8 kPa	396.18
400 K, 5106.4 kPa	431.84
400 K, 6107 kPa	462.27
400 K, 7107.7 kPa	489.16
400 K, 8108.4 kPa	513.44
400 K, 9109.4 kPa	535.71
400 K, 10110 kPa	556.36
400 K, 12612 kPa	602.56
400 K, 15114 kPa	643.08
400 K, 17616 kPa	679.47
400 K, 20118 kPa	712.7
400 K, 25121 kPa	772.06
400 K, 30125 kPa	824.41
400 K, 35128 kPa	871.59
400 K, 40132 kPa	914.76
400 K, 45135 kPa	954.73
400 K, 50138 kPa	992.04
400 K, 60145 kPa	1060.3
400 K, 70152 kPa	1121.8
400 K, 80159 kPa	1178.1
400 K, 90166 kPa	1230.3
400 K, 100173 kPa	1278.9
420 K, 4104.4 kPa	244.51
420 K, 4455.2 kPa	271.52
420 K, 4605 kPa	281.85
420 K, 4955.6 kPa	302.47
420 K, 5105.1 kPa	310.48
420 K, 5456.1 kPa	327.76
420 K, 5605.7 kPa	334.63
420 K, 6105.8 kPa	355.8
420 K, 6606.5 kPa	374.83
420 K, 7106.5 kPa	392.2
420 K, 8107.2 kPa	423.27
420 K, 9108 kPa	450.7
420 K, 10109 kPa	475.45
420 K, 12611 kPa	529.12
420 K, 15112 kPa	574.77
420 K, 17615 kPa	614.98
420 K, 20117 kPa	651.2
420 K, 25120 kPa	714.99
420 K, 30124 kPa	770.53
420 K, 35127 kPa	820.17
420 K, 40131 kPa	865.3
420 K, 45134 kPa	906.89
420 K, 50138 kPa	945.57
420 K, 55142 kPa	981.83
420 K, 60145 kPa	1016
420 K, 70152 kPa	1079.3
420 K, 80159 kPa	1137
420 K, 90166 kPa	1190.3
420 K, 100173 kPa	1240
430 K, 5105.6 kPa	236.47
430 K, 5355.3 kPa	258.17
430 K, 5606 kPa	273.03
430 K, 5855.6 kPa	287.25
430 K, 6106.3 kPa	300.07
430 K, 6356.3 kPa	311.9
430 K, 6606.6 kPa	323.01
430 K, 7106.8 kPa	343.37
430 K, 7106.9 kPa	343.37
430 K, 7607.2 kPa	361.85
430 K, 8107.5 kPa	378.83
430 K, 8607.8 kPa	394.6
430 K, 9108.1 kPa	409.36
430 K, 9608.5 kPa	423.28
430 K, 10109 kPa	436.47
430 K, 11110 kPa	461
430 K, 12110 kPa	483.55
430 K, 13111 kPa	504.47
430 K, 14112 kPa	524.06
430 K, 15113 kPa	542.49
430 K, 17614 kPa	584.59
430 K, 20116 kPa	622.27

— the NIST ThermoML archive (doi:10.1021/acs.jced.6b00577)
